Source: US8865891B2, “Optically-detectable enzyme substrates and their method of use” (priority 2004, dated 2014)
Read-outs that look alike come from different tables or passages of the source.

What was measured:
TEM-1 β-lactamase = TEM-1 β-lactamase (Escherichia coli, UniProt P62593); test: Fluorescence from precipitating β-lactamase substrate in 96-well microplate; type: biochemical
Method: This was diluted 2-fold in methanol to give a working solution of 1 mM. 20 μL of 250 nM TEM-1 β-lactamase was added to the wells of a 96-well microplate. Appropriate volumes of substrate were added to the wells to give final concentrations of 0, 30, 50, 60, 75, 100, 140, 160 and 200 uM after diluting to 100 μL with 100 mM phosphate, 150 mM NaCl (pH7.1). The final β-lactamase concentration was 50 nM. Samples were excited @ 360 nm and fluorescence was measured @ 450 nm, signal was read @ 5, 13, 19, 26, 35, 45, 51 and 65 minutes. Maximum signal was attained after 5 minutes.

[1] = pH range, hydrolysis rate: background fluorescence of substrate in buffers without enzyme; type: physicochemical; settings: for increase in fluorescence due to hydrolysis (percentage of maximum fluorescence): 1 μg/mL, over 250 min; for time to complete hydrolysis: assumes a constant rate of hydrolysis
Method: Compound 108 was prepared at a concentration of 1 μg/ml in three different buffers: MES at pH 5.5, PBS at pH 7.2, and Tris at pH 8.0. The substrate solutions were applied to the wells of a microplate, the plate was protected from light, and fluorescence values were gathered at time points from 10-250 minutes. […] Maximum signal was determined by the fluorescence value obtained when 10 μl of a 100 μg/ml solution of β-lactamase was added to control wells. Each point is the mean of 12 replicates. See, Example 32.
Solutions of Compound 108 (1 μg/mL) were prepared in pH 5.5 MES, pH 7.2 PBS, and pH 8.0 Tris-HCl, then added to 16 wells of a 96-well plate. For each pH, high concentrations of TEM-1 were added to 4 wells to obtain a maximum signal (assuming complete cleavage of all substrate). The entire plate was read every 15 min. for 250 min. All fluorescent signals were averaged, then normalized to a percentage of the maximum fluorescence. […] The Tris-HCl samples increased in fluorescence about 7.5% over 250 min., corresponding to complete hydrolysis after about 55 hrs. […] These estimations assume a constant rate of hydrolysis.

[2] = molecular target: β-lactamase-conjugated secondary antibody (Escherichia coli, UniProt P62593); test: Fluorogenic sandwich ELISA for prostate specific antigen (PSA); settings: 1 μg substrate; fluorogenic assay
Method: For the fluorogenic assay, 100 μl/well of a 10 μg/ml solution of anti-prostate specific antigen (PSA) antibody was applied to microplate wells. After incubation and washes, a dilution series of purified PSA was applied, and detection was achieved using 100 μl of a 10 μg/ml of an anti-PSA primary antibody and 100 μl of a 10 μg/ml of a β-lactamase-conjugated secondary antibody in the presence of 1 μg Compound 108 substrate (with appropriate washes between steps). The Z-statistic^1 gives a lower limit of detection of PSA in this assay of 16 pg/ml. For the colorimetric assay, a commercially available kit for the detection of PSA in human serum or plasma was used according to the manufacturers instructions. The assay was performed using the PSA standards provided in the kit. […] The reaction was stopped after 15 minutes using the stop solution provided in the kit and the absorbance was read at 450 nm. […]
Optimal concentrations for use in ELISA-format assays was determined experimentally using a model sandwich ELISA to detect human Prostate Specific Antigen (PSA). […] The PSA standards were detected with a polyclonal rabbit anti-PSA antibody, then a secondary conjugate of goat anti-rabbit TEM-1. Plates were developed by addition of a β-lactamase substrate solution to drained wells, then measurement of fluorescence on the Tecan Safire fluorescence plate reader.

TEM-1 = TEM-1 (Escherichia coli, UniProt P62593); settings: read-out: Km (μM) difluoro sub., 5 nM TEM-1, PBS, pH 7.2
Chain of TEM-1 (P62593 24-286 limits assumed): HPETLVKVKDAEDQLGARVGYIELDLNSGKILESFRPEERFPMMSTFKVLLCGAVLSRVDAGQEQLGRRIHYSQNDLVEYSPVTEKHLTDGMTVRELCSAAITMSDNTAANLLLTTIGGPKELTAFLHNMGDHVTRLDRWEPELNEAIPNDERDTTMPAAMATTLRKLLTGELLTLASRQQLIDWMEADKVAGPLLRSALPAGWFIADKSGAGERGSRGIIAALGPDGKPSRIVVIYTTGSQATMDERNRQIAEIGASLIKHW
Method: For determination of Km of the β-lactamase substrate with TEM-1, substrates ranging from 40 μg/mL to 5 μg/mL were added to microplate wells with a constant concentration of 5 nM TEM-1. The plate was read for the first 5 minutes with a Tecan Safire fluorescence plate reader using a constant gain setting. Relative Fluorescence Units (RFUs) were converted into moles of product produced using a standard curve of the substrate's fluorescent product. This standard curve was produced by adding an excess of TEM-1 (0.5 μM) to an equal volume of substrate, and incubating for more than 1 hour. Substrate standard concentrations ranged from ˜16 nM to 2 μM. It was assumed the reaction went to completion. All enzyme and substrate solutions were prepared in PBS, pH 7.2.

Chain of TEM-1 β-lactamase (P62593 24-286 limits assumed): as above
Chain of β-lactamase-conjugated secondary antibody (P62593 24-286 limits assumed): as above

**Q.** With `O=C(Cc1cccs1)NC1C(=O)N2C(C(=O)O)=C(COc3ccccc3-c3nc4ccccc4c(=O)[nH]3)C[S+]([O-])C12` (stereo not drawn) [Compound 38] as the molecule, how does the “fluorescence enhancement upon reaction w/β-lactamase” value (TEM-1 β-lactamase; 50 nM β-lactamase, excitation 360 nm, emission 450 nm, pH 7.1) read?
**A.** Its value is no less than 90 fold.

**Q.** And the “time at which maximum signal was attained” value (TEM-1 β-lactamase; 50 nM β-lactamase, pH 7.1)?
**A.** Its value is 5 min.

**Q.** What about the “reaction with β-lactamase in the presence of 40% methanol” value (TEM-1 β-lactamase; 40% methanol) of the same molecule?
**A.** The value was “no reaction occurred”.

**Q.** And the “signal at high concentrations of substrate” value (TEM-1 β-lactamase; substrate up to 200 uM, presumably due to decreased solubility)?
**A.** The value was “signal dropped”.

**Q.** Which results are given for `O=C(Cc1cccs1)NC1C(=O)N2C(C(=O)O)=C(/C=C/COc3cc4c(cc3F)C3(OC(=O)c5ccccc53)c3cc(F)c(OC/C=C/C5=C(C(=O)O)N6C(=O)C(NC(=O)Cc7cccs7)C6[S+]([O-])C5)cc3O4)C[S+]([O-])C12` (stereo not drawn) [Compound 108]?
**A.** increase in fluorescence due to hydrolysis (percentage of maximum fluorescence) ([1]; pH 5.5 MES and pH 7.2 PBS): about 3.25%; time to complete hydrolysis ([1]; pH 5.5 MES and pH 7.2 PBS): about 128 hrs; hydrolysis rate in pH 8.0 Tris-HCl relative to pH 5.5 MES and pH 7.2 PBS ([1]; pH 8.0 Tris-HCl vs MES/PBS): about double; increase in fluorescence due to hydrolysis (percentage of maximum fluorescence) ([1]; pH 8.0 Tris-HCl): about 7.5%; time to complete hydrolysis ([1]; pH 8.0 Tris-HCl): about 55 hrs; lower limit of detection of PSA (Z-statistic) [2]: 16 pg/mL

**Q.** Which Km (TEM-1; Lineweaver-Burk plot) does the source give for `O=C(Cc1cccs1)NC1C(=O)N2C(C(=O)O)=C(C=CCOc3cc4c(cc3F)C3(OC(=O)c5ccccc53)c3cc(F)c(OCC=CC5=C(C(=O)O)N6C(=O)C(NC(=O)Cc7cccs7)C6[S+]([O-])C5)cc3O4)C[S+]([O-])C12` (stereo not drawn) [Compound 108] here?
**A.** Its Km is 40 µM.

**Q.** What about the Km (TEM-1; Scatchard plot) of the same molecule?
**A.** Its Km is 36 µM.
